# Values joined by “and” are separate entries in the source; they are usually repeats but may differ in a detail not shown here. Equal entries are not always repeated.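 Test compounds were applied to cells in 96-well plates for 48 hours at 5 doses. GI50: concentration for 50% inhibition of growth. TGI: concentration producing complete growth inhibition.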
# Assays:
# Test in all cases: NCI tumour cell line growth inhibition, 48 h
# TK-10 renal = system: TK-10 renal
# M14 melanoma = system: M14 melanoma
# OVCAR-3 ovarian = system: OVCAR-3 ovarian
# OVCAR-4 ovarian = system: OVCAR-4 ovarian
# SNB-19 CNS = system: SNB-19 CNS
# DU-145 prostate = system: DU-145 prostate
# BT-549 breast = system: BT-549 breast
# SF-295 CNS = system: SF-295 CNS
# MALME-3M melanoma = system: MALME-3M melanoma
# UACC-257 melanoma = system: UACC-257 melanoma
SMILES,TGI (TK-10 renal),TGI (M14 melanoma),TGI (OVCAR-3 ovarian),TGI (OVCAR-4 ovarian),TGI (SNB-19 CNS),TGI (DU-145 prostate),TGI (BT-549 breast),TGI (SF-295 CNS),TGI (MALME-3M melanoma),TGI (UACC-257 melanoma),GI50 (TK-10 renal),GI50 (M14 melanoma),GI50 (OVCAR-3 ovarian),GI50 (OVCAR-4 ovarian),GI50 (SNB-19 CNS),GI50 (DU-145 prostate),GI50 (BT-549 breast),GI50 (SF-295 CNS),GI50 (MALME-3M melanoma),GI50 (UACC-257 melanoma)
C[C@]12CC[C@H]3[C@@H](CCC4=CC(=O)CC[C@@]43C)[C@]1(O)CC[C@]2(O)C(=O)CO,> 100 µM,> 100 µM,> 100 µM,> 100 µM,> 100 µM,> 100 µM,> 100 µM,> 100 µM,> 100 µM,> 100 µM,–,–,–,–,–,–,–,–,–,–
CC(C)OC(=O)Nc1c([N+](=O)[O-])cc(C(F)(F)F)cc1[N+](=O)[O-],> 100 µM,> 100 µM,> 100 µM,> 100 µM,> 100 µM,> 100 µM,> 100 µM,98.2 µM,> 100 µM,> 100 µM,–,–,–,–,–,–,–,–,–,–
CCOc1ccc2nc3cc(N)ccc3c(N)c2c1,46.8 µM and 34.8 µM,26.3 µM and 23.4 µM,7.25 µM and 10.5 µM,5.45 µM and 13 µM,2.04 µM and 5 µM,18.3 µM and 19 µM,8.28 µM and 4.91 µM,11.9 µM and 11.4 µM,3.23 µM and 3.95 µM,28.6 µM and 21 µM,20.9 µM and 12.7 µM,8.31 µM and 10.7 µM,2 µM and 1.91 µM,2.3 µM and 3.38 µM,0.339 µM and 0.574 µM,5.65 µM and 6.17 µM,2.23 µM and 1.8 µM,2.09 µM and 1.98 µM,1.22 µM and 1.54 µM,11 µM and 5.67 µM
N#Cc1cnc2ccc(NCc3cnc[nH]3)cc2c1Nc1ccc(F)c(Cl)c1,97.2 µM,> 100 µM,> 100 µM,> 100 µM,> 100 µM,> 100 µM,> 100 µM,> 100 µM,36.1 µM,> 100 µM,2.77 µM,14.3 µM,3.38 µM,2.44 µM,27 µM,2.27 µM,> 100 µM,20.1 µM,11.9 µM,86 µM
Oc1ccc(CCNc2nc3ccccc3c3[nH]c4ccccc4c23)cc1O,19 µM,7.28 µM,3.7 µM,16.9 µM,11.2 µM,7.44 µM,21.3 µM,> 100 µM,6.28 µM,40.2 µM,5.37 µM,2.62 µM,1.77 µM,4.8 µM,3.06 µM,2.45 µM,9.27 µM,5.51 µM,2.23 µM,25.5 µM
COc1ccc2c(c1[N+](=O)[O-])CC[C@@H]1[C@@H]2CC[C@]2(C)C(=O)CC[C@@H]12,> 1000 µM,> 562 µM,> 1000 µM,–,–,> 1000 µM,> 1000 µM,> 968 µM,–,> 1000 µM,577 µM,> 562 µM,631 µM,228 µM,457 µM,> 939 µM,470 µM,342 µM,> 748 µM,> 931 µM
Clc1cccc(-c2cc(-c3ccc4c(c3)OCCO4)[nH]n2)c1,56.1 µM,35.3 µM,31.3 µM,49.5 µM,59.3 µM,38.9 µM,47 µM,45.1 µM,47.5 µM,55.3 µM,13.9 µM,1.49 µM,1.95 µM,13.8 µM,21.6 µM,8.74 µM,6.32 µM,9.71 µM,5.22 µM,25.4 µM
O=c1oc2ccccc2cc1P(=O)(O)O,> 100 µM,> 100 µM,> 100 µM,> 100 µM,> 100 µM,> 100 µM,> 100 µM,> 100 µM,> 100 µM,> 100 µM,–,–,–,–,–,–,–,–,–,–
CCCCCOC(=O)c1c(C)[nH]c(/C=C2\N=C(c3ccc[nH]3)C=C2OC)c1C,1.72 µM,0.0481 µM,0.615 µM,2.39 µM,8.4 µM,1.68 µM,1.1 µM,0.544 µM,1.97 µM,1.28 µM,0.047 µM,0.0204 µM,0.0423 µM,0.0559 µM,0.317 µM,0.0371 µM,0.0469 µM,0.0966 µM,0.32 µM,0.0953 µM
CCO/C(O)=c1/s/c(=C2/SC(=S)N(c3ccc(C)cc3)C2=O)n(-c2ccccc2)c1=N,> 100 µM,> 100 µM,> 100 µM,44.3 µM,> 100 µM,> 100 µM,> 100 µM,59.7 µM,> 100 µM,> 100 µM,–,–,–,–,–,–,–,–,–,–
COc1ccc2c(c1)c(-c1ccc(-c3cn(C)c4ccc(OC)cc34)s1)cn2C,> 100 µM,> 100 µM,> 100 µM,> 100 µM,> 100 µM,> 100 µM,> 100 µM,> 100 µM,> 100 µM,> 100 µM,> 100 µM,> 100 µM,> 100 µM,90.2 µM,> 100 µM,> 100 µM,> 100 µM,> 100 µM,> 100 µM,> 100 µM
COc1ccc(-c2nn3ncccc3c2-c2ccnc(Nc3ccc(F)c(F)c3)n2)cc1,> 25 µM,> 25 µM,> 25 µM,> 25 µM,> 25 µM,> 25 µM,> 25 µM,> 25 µM,> 25 µM,> 25 µM,14.3 µM,9.61 µM,11.8 µM,12.4 µM,14.3 µM,15.8 µM,15 µM,4.26 µM,11.3 µM,12 µM
COc1ccc(-c2cc(=O)c3c(C)ccnc3[nH]2)cc1,> 100 µM,> 100 µM,92 µM,> 100 µM,> 100 µM,> 100 µM,67.3 µM,> 100 µM,65.2 µM,> 100 µM,–,–,13.9 µM,–,–,–,–,19.5 µM,–,–
CCOc1cc(/C=C/C(=O)CC(=O)/C=C/c2ccc(OC(=O)CNc3nc4ccc(OC)cc4s3)c(OCC)c2)ccc1OC(=O)CNc1nc2ccc(OC)cc2s1,27.5 µM,22.5 µM,29 µM,68.5 µM,19.4 µM,12.3 µM,8.78 µM,33.2 µM,27.3 µM,21.1 µM,11.4 µM,5.18 µM,4.45 µM,13.6 µM,6.02 µM,3.17 µM,2.62 µM,15.4 µM,12.3 µM,5.53 µM

# Source: PubChem BioAssay (NCI)
